# Data from patent US5981774A, “Compounds for the treatment of hepatoma” (National Science Council, priority 1993, dated 1999).
# How the values were obtained:
# leukemia cells = conditions: Habib et al., 1987; cited from earlier work
# KB cells [1] = test: microassay for anticellular effect (cytotoxicity, ED50), KB cells; assay type: cell-based, human; conditions: for IC50: Homo sapiens, 96 h; for inhibitory activity in words (KB): KB cells in vitro
# Description: (§1) The name PLC/PRF/5 designates human primary liver cancer cells; the symbol KB designates epidermoid carcinoma cells.
# (§2) PLC/PRF/5 cells were isolated from human hepatoma and are known to produce HBs Ag continuously in culture fluids. The cells were grown as continuous cultures in a growth medium consisting of Dulbecco's modified Eagle medium (DMEM, GIBCO, Grand Island, N.Y.), 10% fetal bovin serum (FBS, GIBCO), 100 IU/ml penicillin, 100 µg/ml streptomycin and 2 mM L-glutamine. The KB cells were maintained on DMEM containing 10% FBS L-glutamine and antibiotics. For the microassay, the growth medium was supplemented further with 10 mM Hepes buffer, pH 7.3.
# (§3) The ED50 values were calculated from a semilog plot of the drug concentration vs. the percentage of viable cells on day 4.
# [2] = tested on: human hepatoma PLC/PRF/5 cells; test: microassay for anticellular effect (cytotoxicity, ED50), PLC/PRF/5 cells; assay type: cell-based; conditions: for ED50 (PLC/PRF/5) / IC50: PLC/PRF/5 cells, % viable cells on day 4, n = 8, significant activity requires ED50 < 4.0 ug/ml; for IC50: Homo sapiens; for inhibitory activity in words (PLC/PRF/5): human hepatoma PLC/PRF/5 cells in vitro
# Description: as §1, §2, §3
# [3] = tested on: epidermis carcinoma KB cells; test: Inhibition of Macromolecular Synthesis ([3H]-thymidine, -uridine or -methionine incorporation), KB cells; assay type: cell-based, human; conditions: for effects on DNA, RNA and protein synthesis (KB): FIGS. 2, 4, 6
# Description: (§4) The activity of compounds 16, 17 and 21 on macromolecular synthesis were determined by measuring the isotopic incorporation of [^3 H]-thymidine, -uridine and -methionine in the human PLC/PRF/5 and KB cells respectively.
# (§5) PLC/PRF/5 cells were obtained from human hepatoma and are known to produce HBs Ag continuously in culture fluids. Human hepatoma PLC/PRF/5 and epidermis carcinoma KB cells were maintained in Dulbeceo's modified Eagle medium (DMEM, Gibco BRL Grand Island, N.Y., U.S.A.), containing 10% fetal bovine serum (FBS, Gibco BRL), 2 mM L-glutamine, 100 units mL-1 penicillin, 100 μg mL-l streptomycin. The 212 cells were maintained in Minimum essential alpha medium (MEM, Gibco BRL), containing 10% calf serum (Gibco BRL). For microassay, the growth medium was supplemented with 10 mM HEPES buffer, pH 7.3 and incubated at 37° C. in a CO2 incubation.
# (§6) Inhibition of Macromolecular Synthesis. The synthesis of macromolecules were measured by the incorporation of ^3 H-thymidine, -uridine or -methionine (New England) Nuclear, Boston, Mass., USA) into the tumor cells. Briefly, the tumor cell (1 1.5×10^4 /100 μl/well) maintained in growth medium with or without drugs in microplates were incubated at 37° C. The cells after pulsed labeling with [^3 H]-thymidine, -uridine, or -methionine for 18 hrs at day 4 post-treatment were harvested and loaded onto glass filter paper (Skatron. Va., USA). The incorporation activities of the cells were measured by the liquid scintillation counter (LS-5000 TA, Beckman Calif., USA). All treatments were conducted in quadruplicate and the mean values were used for analysis. Each experiment was repeated at least 3 times. The data shown are mean counts per minute (CPM)±SEM. Percent inhibition of [^3 H]-thymidine, -uridine, or -methionine incorporation was calculated as follows: [formula]
# human PLC/PRF/5 cells = test: Inhibition of Macromolecular Synthesis ([3H]-thymidine, -uridine or -methionine incorporation), PLC/PRF/5 cells; assay type: cell-based; conditions: for dependence of inhibition of macromolecular biosynthesis on concentration and time (PLC/PRF/5): PLC/PRF/5 cells; for effects on DNA, RNA and protein synthesis (PLC/PRF/5): human PLC/PRF/5 cells, FIGS. 1, 3, 5; for suppression of cellular DNA, RNA and protein synthesis: overall conclusion, cell line not stated
# Description: as §4, §5, §6
# [4] = tested on: human hepatoma PLC/PRF/5 cells; conditions: human hepatoma PLC/PRF/5 cells in vitro; Lin et al., 1991, 1992; cited from earlier work
# KB cells [5] = conditions: KB cells in vitro; Lin et al., 1991, 1992; cited from earlier work
# [6] = KB cells, % viable cells on day 4, n = 8, significant activity requires ED50 < 4.0 ug/ml
compound,measurement,setting,value
"3',4'-deoxy-4'-chloropsorspermin-3'-ol",cytotoxic effects against leukemia cells,leukemia cells,strong cytotoxic effects
"3',4'-deoxy-psorospermin",cytotoxic effects against leukemia cells,leukemia cells,strong cytotoxic effects
"3',4'=deoxypsorospermin-3',4'-diol",cytotoxic effects against leukemia cells,leukemia cells,strong cytotoxic effects
"N.N.[Cl][Pt][Cl] [Cisplatin, reference compound]",ED50 (KB),KB cells [1]; [6],0.16 µg/mL
same,ED50 (PLC/PRF/5),[2],5.29 µg/mL
"O=c1c2ccccc2oc2cc(O)ccc12 [Compound 13, 3-hydroxyxanthone]",IC50,KB cells [1]; [6],0.77 µg/mL
same,inhibitory activity in words (KB),KB cells [1],significant and potent inhibitory activity
same,IC50,"[2]; PLC-PRF-5, 96 h",3.73 µg/mL
same,ED50 (PLC/PRF/5),[2]; 5760 min,3.75 µg/mL
same,inhibitory activity in words (PLC/PRF/5),[2],significant and potent inhibitory activity
"O=c1c2ccccc2oc2cc(OCC3CO3)ccc12 (stereo not shown) [Compound 14, 3-(2,3-Epoxypropoxy)xanthone]",IC50,KB cells [1]; [6],0.85 µg/mL
same,IC50,[2]; 96 h,1.43 µg/mL
same,inhibitory activity in words (PLC/PRF/5),[2],enhanced very markedly the inhibitory effects
"O=c1c2ccc(OCC3CO3)cc2oc2ccc(OCC3CO3)cc12 (stereo not shown) [Compound 16, 2,6-di(2,3-epoxypropoxy) xanthone]",dependence of inhibition of macromolecular biosynthesis on concentration and time (KB),[3],only correlated with the concentration of drug treatment
same,"effects on DNA, RNA and protein synthesis (KB)",[3],not apparent
same,dependence of inhibition of macromolecular biosynthesis on concentration and time (PLC/PRF/5),human PLC/PRF/5 cells,correlated with the concentration and the period of drug treatment
same,"effects on DNA, RNA and protein synthesis (PLC/PRF/5)",human PLC/PRF/5 cells,effects are significant at low concentration
same,"suppression of cellular DNA, RNA and protein synthesis",human PLC/PRF/5 cells,"suppress cellular DNA, RNA and protein synthesis"
same,IC50,KB cells [1]; [6],0.0043 µg/mL
same,inhibitory activity in words (KB),KB cells [1],more potent inhibitory activity
same,ED50 potency relative to cisplatin (KB),"KB cells [1]; KB cells, versus cisplatin",over 40 times
same,IC50,[2]; 96 h,0.23 µg/mL
"O=c1c2ccc(OCC3CO3)cc2oc2cc(OCC3CO3)ccc12 (stereo not shown) [Compound 17, 3,6-di(2,3-epoxypropxy)xanthone]",dependence of inhibition of macromolecular biosynthesis on concentration and time (KB),[3],only correlated with the concentration of drug treatment
same,"effects on DNA, RNA and protein synthesis (KB)",[3],not apparent
same,dependence of inhibition of macromolecular biosynthesis on concentration and time (PLC/PRF/5),human PLC/PRF/5 cells,correlated with the concentration and the period of drug treatment
same,"effects on DNA, RNA and protein synthesis (PLC/PRF/5)",human PLC/PRF/5 cells,effects are significant at low concentration
same,"suppression of cellular DNA, RNA and protein synthesis",human PLC/PRF/5 cells,"suppress cellular DNA, RNA and protein synthesis"
same,IC50,KB cells [1]; [6],0.11 µg/mL
same,IC50,[2]; 96 h,0.24 µg/mL
"O=c1c2cccc(OCC3CO3)c2oc2cc(OCC3CO3)cc(O)c12 (stereo not shown) [Compound 21, 3,5-di(2,3-epoxypropoxy)-1-hydroxyxanthone]",dependence of inhibition of macromolecular biosynthesis on concentration and time (KB),[3],only correlated with the concentration of drug treatment
same,"effects on DNA, RNA and protein synthesis (KB)",[3],not apparent
same,dependence of inhibition of macromolecular biosynthesis on concentration and time (PLC/PRF/5),human PLC/PRF/5 cells,correlated with the concentration and the period of drug treatment
same,"effects on DNA, RNA and protein synthesis (PLC/PRF/5)",human PLC/PRF/5 cells,effects are significant at low concentration
same,"suppression of cellular DNA, RNA and protein synthesis",human PLC/PRF/5 cells,"suppress cellular DNA, RNA and protein synthesis"
same,IC50,KB cells [1]; [6],0.089 µg/mL
same,inhibitory activity in words (KB),KB cells [1],significant novel inhibitory activity
same,IC50,[2]; 96 h,0.061 µg/mL
same,inhibitory activity in words (PLC/PRF/5),[2],significant novel inhibitory activity
COc1cc2c(c3oc4c(O)cccc4c(=O)c13)C[C@H]([C@@]1(C)CO1)O2 [Psorospermin],cytotoxic effects against leukemia cells,leukemia cells,strong cytotoxic effects
C=C(C)C1Cc2c(oc3c4c(cc(O)c3c2=O)OC(C)(C)C=C4)-c2c(O)cc(OC)c(O)c21 (stereo not shown) [artomunoxanthone],"cytotoxic effects (PLC/PRF/5), isolated natural compounds",[4],exhibited cytotoxic effects
same,"cytotoxic effects (KB), isolated natural compounds",KB cells [5],exhibited cytotoxic effects
COc1cc2c(cc1O)-c1oc3c4c(cc(O)c3c(=O)c1C(C=C(C)C)O2)OC(C)(C)C=C4 (stereo not shown) [cycloartomunin],"cytotoxic effects (PLC/PRF/5), isolated natural compounds",[4],exhibited cytotoxic effects
same,"cytotoxic effects (KB), isolated natural compounds",KB cells [5],exhibited cytotoxic effects
CC(C)=CC1Oc2cc(O)ccc2-c2oc3cc(O)c(/C=C/C(C)C)c(O)c3c(=O)c21 (stereo not shown) [cyclocommunin],"cytotoxic effects (PLC/PRF/5), isolated natural compounds",[4],exhibited cytotoxic effects
same,"cytotoxic effects (KB), isolated natural compounds",KB cells [5],exhibited cytotoxic effects
CC(C)=CC1Oc2cc(O)ccc2-c2oc3cc(O)cc(O)c3c(=O)c21 (stereo not shown) [cyclocommunol],"cytotoxic effects (PLC/PRF/5), isolated natural compounds",[4],exhibited cytotoxic effects
same,"cytotoxic effects (KB), isolated natural compounds",KB cells [5],exhibited cytotoxic effects
CC(C)=CC1Oc2cc(O)ccc2-c2oc3c4c(cc(O)c3c(=O)c21)OC(C)(C)C=C4 (stereo not shown) [cyclomorusin],"cytotoxic effects (PLC/PRF/5), isolated natural compounds",[4],exhibited cytotoxic effects
same,"cytotoxic effects (KB), isolated natural compounds",KB cells [5],exhibited cytotoxic effects
"O^5 -methyl-3',4'-deoxypsorospermin-3'-ol",cytotoxic effects against leukemia cells,leukemia cells,strong cytotoxic effects
artomunoxanth-otrione epoxide,"cytotoxic effects (PLC/PRF/5), isolated natural compounds",[4],exhibited cytotoxic effects
same,"cytotoxic effects (KB), isolated natural compounds",KB cells [5],exhibited cytotoxic effects
cyclo-mulberrin,"cytotoxic effects (PLC/PRF/5), isolated natural compounds",[4],exhibited cytotoxic effects
same,"cytotoxic effects (KB), isolated natural compounds",KB cells [5],exhibited cytotoxic effects
dihydrocyclo-artomunin,"cytotoxic effects (PLC/PRF/5), isolated natural compounds",[4],exhibited cytotoxic effects
same,"cytotoxic effects (KB), isolated natural compounds",KB cells [5],exhibited cytotoxic effects
dihydroisocycloartomunin,"cytotoxic effects (PLC/PRF/5), isolated natural compounds",[4],exhibited cytotoxic effects
same,"cytotoxic effects (KB), isolated natural compounds",KB cells [5],exhibited cytotoxic effects
